Test results from patent US8247211B2, “Glycopeptide antibiotics” (American Cyanamid Company, priority 2001, dated 2012).
Converted amounts (≈) assume the structure as drawn.

Key:
Test in all cases: In vitro antibacterial evaluation: minimum inhibitory concentration (MIC), broth dilution method
Format in all cases: cell-based
[1] = system: Staphylococcus sp.
Summary of the method: (§1)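 An MIC is reported for each organism as the least concentration giving inhibition, using broth dilution over 64-0.06 μg/mL with a 5×10^5 CFU/mL inoculum.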

[2] = system: Enterococcus sp.; settings: 18 hours at 35° C.
Summary of the method: as §1

[3] = system: Streptococcus sp.; settings: 18 hours at 35° C.
Summary of the method: as §1

[4] = system: Escherichia coli; settings: 18 hours at 35° C.
Summary of the method: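 Susceptibility determined by NCCLS-recommended broth dilution (M7-A2), Muller-Hinton II […]. Concentration span 64-0.06 μg/mL, inoculum 5×10^5 CFU/mL. Isolates include strains resistant to methicillin, penicillin and/or vancomycin.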

[5] = broth dilution, inoculum 5×10^5 CFU/mL

MIC Staphylococcus aureus (ATCC 29213) ([1]; strain ATCC 29213): >64 µg/mL
MIC Staphylococcus aureus (GC 1131) ([1]; strain GC 1131): >64 µg/mL
MIC Staphylococcus aureus (GC 3051) ([1]; strain GC 3051): >64 µg/mL
MIC Staphylococcus aureus (GC 3053) ([1]; strain GC 3053): >64 µg/mL
MIC Staphylococcus aureus (GC 4541) ([1]; strain GC 4541): 64 µg/mL (≈ 42.4 µM)
MIC Staphylococcus aureus (GC 4542) ([1]; strain GC 4542): >64 µg/mL
MIC Staphylococcus aureus-SMITH (GC 4543) ([1]; strain GC 4543): >64 µg/mL
MIC Staphylococcus aureus (GC 4544) ([1]; strain GC 4544): >64 µg/mL
MIC Staphylococcus aureus (GC 4545) ([1]; strain GC 4545): 64 µg/mL (≈ 42.4 µM)
MIC Coagulase Negative Staphylococcus (GC 4547) ([1]; strain GC 4547): 32 µg/mL (≈ 21.2 µM)
MIC Coagulase Negative Staphylococcus (GC 4548) ([1]; strain GC 4548): 64 µg/mL (≈ 42.4 µM)
MIC Coagulase Negative Staphylococcus (GC 4549) ([1]; strain GC 4549): 64 µg/mL (≈ 42.4 µM)
MIC Coagulase Negative Staphylococcus (GC 4551) ([1]; strain GC 4551): >64 µg/mL
MIC Coagulase Negative Staphylococcus (GC 6257) ([1]; strain GC 6257): 64 µg/mL (≈ 42.4 µM)
MIC Enterococcus avium (GC 4558) ([2]; Enterococcus avium (GC 4558)): 32 µg/mL (≈ 21.2 µM)
MIC Enterococcus faecalis (ATCC 29212) ([2]; Enterococcus faecalis (ATCC 29212)): >64 µg/mL
MIC Enterococcus faecalis (GC 2242) ([2]; Enterococcus faecalis (GC 2242)): >64 µg/mL
MIC Enterococcus faecalis (GC 2691) ([2]; Enterococcus faecalis (GC 2691)): >64 µg/mL
MIC Enterococcus faecalis (GC 3059) ([2]; Enterococcus faecalis (GC 3059)): >64 µg/mL
MIC Enterococcus faecalis (GC 4552) ([2]; Enterococcus faecalis (GC 4552)): >64 µg/mL
MIC Enterococcus faecalis (GC 4553) ([2]; Enterococcus faecalis (GC 4553)): 64 µg/mL (≈ 42.4 µM)
MIC Enterococcus faecalis (GC 4554) ([2]; Enterococcus faecalis (GC 4554)): >64 µg/mL
MIC Enterococcus faecalis (GC 6189) ([2]; Enterococcus faecalis (GC 6189)): >64 µg/mL
MIC Enterococcus faecium (GC 2243) ([2]; Enterococcus faecium (GC 2243)): 64 µg/mL (≈ 42.4 µM)
MIC Enterococcus faecium (GC 4556) ([2]; Enterococcus faecium (GC 4556)): >64 µg/mL
MIC Enterococcus faecium (GC 4557) ([2]; Enterococcus faecium (GC 4557)): 8 µg/mL (≈ 5.3 µM)
MIC Enterococcus avium (GC 4558) [2, 5]: 32 µg/mL (≈ 21.2 µM)
MIC Enterococcus faecalis (ATCC 29212) [2, 5]: >64 µg/mL
MIC Enterococcus faecalis (GC 2242) [2, 5]: >64 µg/mL
MIC Enterococcus faecalis (GC 2691) [2, 5]: >64 µg/mL
MIC Enterococcus faecalis (GC 3059) [2, 5]: >64 µg/mL
MIC Enterococcus faecalis (GC 4552) [2, 5]: >64 µg/mL
MIC Enterococcus faecalis (GC 4553) [2, 5]: 64 µg/mL (≈ 42.4 µM)
MIC Enterococcus faecalis (GC 4554) [2, 5]: >64 µg/mL
MIC Enterococcus faecalis (GC 6189) [2, 5]: >64 µg/mL
MIC Enterococcus faecium (GC 2243) [2, 5]: 64 µg/mL (≈ 42.4 µM)
MIC Enterococcus faecium (GC 4556) [2, 5]: >64 µg/mL
MIC Enterococcus faecium (GC 4557) [2, 5]: 8 µg/mL (≈ 5.3 µM)
MIC Streptococcus agalactiae (GC 4564) ([3]; Streptococcus agalactiae (GC 4564)): >64 µg/mL
MIC Streptococcus pneumoniae (ATCC 6301) ([3]; Streptococcus pneumoniae (ATCC 6301)): 64 µg/mL (≈ 42.4 µM)
MIC Streptococcus pneumoniae (GC 1894) ([3]; Streptococcus pneumoniae (GC 1894)): 64 µg/mL (≈ 42.4 µM)
MIC Streptococcus pneumoniae (GC 4565) ([3]; Streptococcus pneumoniae (GC 4565)): 64 µg/mL (≈ 42.4 µM)
MIC Streptococcus pyogenes (GC 4563) ([3]; Streptococcus pyogenes (GC 4563)): 32 µg/mL (≈ 21.2 µM)
MIC Streptococcus agalactiae (GC 4564) [3, 5]: >64 µg/mL
MIC Streptococcus pneumoniae (ATCC 6301) [3, 5]: 64 µg/mL (≈ 42.4 µM)
MIC Streptococcus pneumoniae (GC 1894) [3, 5]: 64 µg/mL (≈ 42.4 µM)
MIC Streptococcus pneumoniae (GC 4565) [3, 5]: 64 µg/mL (≈ 42.4 µM)
MIC Streptococcus pyogenes (GC 4563) [3, 5]: 32 µg/mL (≈ 21.2 µM)
MIC Escherichia coli (ATCC 25922) ([4]; Escherichia coli (ATCC 25922)): 64 µg/mL (≈ 42.4 µM)
MIC Escherichia coli (GC 4559) ([4]; Escherichia coli (GC 4559)): 64 µg/mL (≈ 42.4 µM)
MIC Escherichia coli (GC 4560) ([4]; Escherichia coli (GC 4560)): 8 µg/mL (≈ 5.3 µM)
SMILES: CC(c1ccccc1)C1NC(=O)CNC(=O)C(CO)NC(=O)C(C(O)C2CNC(=N)N2C2OC(CO)C(O)C(O)C2O)NC(=O)C(C(O)C2CNC(=N)N2)NC(=O)C(Cc2ccc(OC3OC(CO)C(OC4OC5COC(c6ccccc6)OC5C(O)C4O)C(O)C3O)c(I)c2)NC1=O (stereo not drawn) [Example 196, Cyclo[glycyl-β-methylphenylalanyl-O-[4-O-(4,6-O-benzylidenehexopyranosyl)hexopyranosyl]-3-iodotyrosyl-3-(2-iminoimidazolidin-4-yl)seryl-3-(3-hexopyranosyl-2-iminoimidazolidin-4-yl)-serylseryl]]
MIC Staphylococcus haemolyticus (GC 4546) ([1]; strain GC 4546): 32 µg/mL (≈ 21.2 µM)
